According to US7863332B2, “Biaromatic compound activators of PPARγ receptors and cosmetic/pharmaceutical compositions comprised thereof” (Galderma Research & Development, priority 2004, dated 2011):

Columns and labels:
Format in all cases: cell-based
PPARα = target: T1, PPARα (Homo sapiens, UniProt Q07869); assay: Cross-curve PPAR transactivation test (PPARα); details: HeLN cells, Gal-hPPARα, luciferase reporter; cross curves against reference agonist, Schild regression; n.a means not active; read-out: PPAR alpha Kd app
T1 sequence (Q07869 202-468 limits assumed): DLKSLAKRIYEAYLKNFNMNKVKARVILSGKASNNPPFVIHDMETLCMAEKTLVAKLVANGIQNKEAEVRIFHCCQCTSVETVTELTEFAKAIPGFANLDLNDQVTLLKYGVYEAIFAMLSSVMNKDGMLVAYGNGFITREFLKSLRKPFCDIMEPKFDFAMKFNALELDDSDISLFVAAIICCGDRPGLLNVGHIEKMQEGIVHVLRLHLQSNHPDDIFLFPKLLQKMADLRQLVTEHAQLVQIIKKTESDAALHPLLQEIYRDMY
Procedure: (§1) The activation of PPAR receptors with an agonist (activator) in HeLN cells leads to the expression of a reporter gene, luciferase, which, in the presence of a substrate, generates light. The modulation of the PPAR receptors is measured by quantifying the luminescence produced after incubating the cells in the presence of a reference agonist. The ligands displace the agonist from its site. The measurement of the activity is performed by quantifying the light produced. This measurement makes it possible to determine the modulatory activity of the compounds according to the invention by determining the constant that is the affinity of the molecule for the PPAR receptor. Since this value can fluctuate depending on the basal activity and the expression of the receptor, it is referred to as Kd apparent (KdApp in nM).
(§2) To determine this constant, “cross curves” of the test product against a reference agonist are produced in a 96-well plate: 10 concentrations of the test product plus a concentration 0 are arranged in a line, and 7 concentrations of the agonist plus a concentration 0 are arranged in a column. This is 88 measurement points for 1 product and 1 receptor. The remaining 8 wells are used for repeatability controls.
(§3) Measurements are also taken for total agonist controls with the same products.
(§4) The HeLN cell lines used are stable transfectants containing the plasmids ERE-βGlob-Luc-SV-Neo (reporter gene) and PPAR (α, δ, γ) Gal-hPPAR. These cells are inoculated into 96-well plates at a rate of 10 000 cells per well in 100 μl of DMEM medium without phenol red and supplemented with 10% of defatted calf serum. The plates are then incubated at 37° C. and 7% CO2 for 16 hours.
(§5) The various dilutions of the test products and of the reference ligand are added at a rate of 5 μl per well. The plates are then incubated for 18 hours at 37° C. and 7% CO2. The culture medium is removed by turning over and 100 μl of a 1:1 PBS/luciferin mixture are added to each well. After 5 minutes, the plates are read by the luminescence detector.

PPARγ = target: T2, PPARγ (Homo sapiens, UniProt P37231); assay: Cross-curve PPAR transactivation test (PPARγ); details: HeLN cells, Gal-hPPARγ, luciferase reporter; cross curves against reference agonist, Schild regression; n.a means not active; read-out: PPAR gamma Kd app
T2 sequence (P37231 238-505 limits assumed): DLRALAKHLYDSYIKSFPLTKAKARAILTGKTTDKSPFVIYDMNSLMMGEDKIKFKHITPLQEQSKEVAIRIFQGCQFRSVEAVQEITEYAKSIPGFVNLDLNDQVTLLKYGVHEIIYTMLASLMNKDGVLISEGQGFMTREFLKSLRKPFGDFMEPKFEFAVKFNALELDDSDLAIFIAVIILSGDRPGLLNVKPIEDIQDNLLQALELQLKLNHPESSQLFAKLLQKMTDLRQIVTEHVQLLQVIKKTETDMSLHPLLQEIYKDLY
Procedure: as §1, §2, §3, §4, §5

[1] = test system: sebocytes obtained from rat preputial glands; assay: Rat sebocyte culture test; details: 120 h, 14C acetate-labelled lipids, 5 days incubation + 24 hours label, read-out: Triglycerides AC50
Excerpt: Sebocytes in culture obtained from rat preputial gland constitute a pertinent model for evaluating sebaceous function modulatory compounds as described by Rosenfield et al. (Mechanisms of androgen induction of sebocyte differentiation. Rosenfield R. L., Deplewski D., Kentsis A., Ciletti N., Dermatology, 1998; 196(1):43-6). This model has especially been used to characterize PPAR compounds with potential in dermatology (Rat preputial sebocyte differentiation involves peroxisome proliferator-activated receptors. Rosenfield R. L., Kentsis A., Deplewski D., Ciletti N., J. Invest. Dermatol., 1999 February; 112(2):226-32). These sebocytes have functional similarities close to those of human skin sebocytes (response to androgens and to anti-androgens, accumulation of specific sebum lipids, expression of specific markers of the sebaceous gland). The data resulting from this test are considered as pertinent of potential activity on the human sebaceous gland.
Protocol for culturing sebocytes obtained from rat preputial glands
The preputial glands are obtained from 10-week-old male rats. They are extracted under anesthesia with isoflurane, before euthanizing the animals. The glands are then digested enzymatically with trypsin (0.25% trypsin+collagenase H 1.5 mg/ml/gland). The cells are cultured for 24 hours in 24-well plates (37° C., 5% CO2) in DMEM culture medium supplemented with various factors, especially fetal calf serum (10%), glutamine (1%), a cocktail of antibiotics and anti-mycotic agents and insulin (5 μg/ml). The cells are then placed in Cellgro medium supplemented with various factors (Mediatech®) and the test compounds are then added in response doses (duplicate). After incubation for 5 days, 10 μl of radio labeled (^14C) acetate are added to the culture medium (0.2 μCi/μl, Amersham). The cells are incubated for 24 hours and then washed and recovered after digestion with trypsin. The radiolabelled lipids are then extracted using a methanol/dichloromethane mixture (1/2) and placed on a silica TLC plate (Merck®) using a loading robot. The lipids are then separated and quantified after revelation using a Phosphorimager (analysis by image analysis software). For each compound, the AC50 (concentration for which 50% of the effect of the compound is obtained) is determined. The results are expressed as nanomolar concentration for the following specific sebaceous gland lipids: Triglycerides and/or Cholesterol esters.

PPARδ = target: T3, PPARδ (Homo sapiens, UniProt Q03181); assay: Cross-curve PPAR transactivation test (PPARδ); details: HeLN cells, Gal-hPPARδ, luciferase reporter; cross curves against reference agonist, Schild regression; n.a means not active; read-out: PPARs delta Kd app
T3 sequence (Q03181 171-441 limits assumed): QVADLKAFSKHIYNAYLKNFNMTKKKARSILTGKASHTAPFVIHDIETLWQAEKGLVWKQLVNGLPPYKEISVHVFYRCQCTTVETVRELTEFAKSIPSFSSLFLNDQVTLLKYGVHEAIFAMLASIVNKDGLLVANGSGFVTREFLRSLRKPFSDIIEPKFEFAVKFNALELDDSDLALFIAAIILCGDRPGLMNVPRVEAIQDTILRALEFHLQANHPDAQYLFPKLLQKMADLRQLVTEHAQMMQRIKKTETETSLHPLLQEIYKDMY
Procedure: as §1, §2, §3, §4, §5

| SMILES | Kd (PPARα) | Kd (PPARγ) | AC50 [1] | Kd (PPARδ) |
| --- | --- | --- | --- | --- |
| CCCCCCCNC(=O)N(C)c1cccc(-c2ccc(CCC(=O)O)cc2OCCC(C)C)c1 [Example 16, 3-[3′-(3-heptyl-1-methylureido)-2-(3-methylbutoxy)biphenyl-4-yl]propanoic acid] | 1000 nM | 1 nM | 0.008 nM | – |
| CCCCCCCNC(=O)N(C)c1cccc(-c2ccc(CCC(=O)O)cc2OCCCC)c1 [Example 26, 3-[2-butoxy-3′-(3-heptyl-1-methylureido)biphenyl-4-yl]propanoic acid] | 250 nM | 0.25 nM | 0.005 nM | 1000 nM |
| CCCCCCCNC(=O)N(C)c1cccc(-c2ccc(CCC(=O)O)cc2OCCCC(F)(F)F)c1 [Example 38, 3-[3′-(3-heptyl-1-methylureido)-2-(4,4,4-trifluorobutoxy)biphenyl-4-yl]propanoic acid] | 250 nM | 1 nM | 0.006 nM | – |
| CCCCCNC(=O)N(C)c1cccc(-c2ccc(CCC(=O)O)cc2OCCCC)c1 [Example 41, 3-[2-butoxy-3′-(1-methyl-3-pentylureido)biphenyl-4-yl]propanoic acid] | 60 nM | 0.5 nM | 0.008 nM | 2000 nM |
| CCCCCCCNC(=O)N(C)c1cccc(-c2ccc(CCC(=O)O)cc2OCc2ccc(F)cc2)c1 [Example 44, 3-[2-(4-fluorobenzyloxy)-3′-(3-heptyl-1-methylureido)biphenyl-4-yl]propanoic acid] | 1000 nM | 1 nM | 0.008 nM | – |
